In brackets after ≈: the same amount, converted by molar mass.
system: Mycobacterium tuberculosis variant bovis; assay: microbe, parasite or virus in culture; assay type: functional; settings: ATCC 35734, 168 h

Structure (SMILES)	MIC90
O=C(/C=C/c1cccc([N+](=O)[O-])c1)c1ccc(N2CCCCC2)cc1	> 10 µM
CC(C)(C)c1ccc(C(=O)/C=C/c2ccc([N+](=O)[O-])s2)cc1	0.5 µM (≈ 0.158 µg/mL)
CSc1ccc(C(=O)/C=C/c2ccc([N+](=O)[O-])o2)cc1	0.26 µM (≈ 0.0752 µg/mL)
COc1ccc(/C=C/C(=O)c2cccc(Br)c2)cc1	9.38 µM (≈ 2.98 µg/mL)
Cc1ccccc1C(=O)/C=C/c1ccc([N+](=O)[O-])o1	0.27 µM (≈ 0.0695 µg/mL)
CCCCc1ccc(C(=O)/C=C/c2ccc([N+](=O)[O-])o2)cc1	0.36 µM (≈ 0.108 µg/mL)
COc1ccc(/C=C/C(=O)c2cccc(I)c2)cc1	9.47 µM (≈ 3.45 µg/mL)
CCCCc1ccc(C(=O)/C=C/c2ccc([N+](=O)[O-])s2)cc1	1.64 µM (≈ 0.517 µg/mL)
CSc1ccc(C(=O)/C=C/c2ccc([N+](=O)[O-])s2)cc1	0.56 µM (≈ 0.171 µg/mL)
O=C(/C=C/c1ccc([N+](=O)[O-])cc1)c1ccc(N2CCCCC2)cc1	> 10 µM
Cc1ccc(C(=O)/C=C/c2ccc([N+](=O)[O-])s2)cc1	0.98 µM (≈ 0.268 µg/mL)
O=C(/C=C/c1ccco1)c1ccc(N2CCCCC2)cc1	> 10 µM
Cc1cccc(C(=O)/C=C/c2ccc([N+](=O)[O-])o2)c1	> 10 µM
O=C(/C=C/c1ccc([N+](=O)[O-])o1)c1ccc(I)cc1	2.57 µM (≈ 0.949 µg/mL)
O=C(/C=C/c1ccc(Cl)s1)c1ccc(-n2ccnc2)cc1	9.52 µM (≈ 3 µg/mL)
CC(C)(C)c1ccc(C(=O)/C=C/c2ccc[nH]2)cc1	> 10 µM
O=C(/C=C/c1ccc([N+](=O)[O-])o1)c1ccc(-c2ccccc2)cc1	0.59 µM (≈ 0.188 µg/mL)
CN(C)c1ccc(/C=C/C(=O)c2ccc(-c3ccccc3)cc2)cc1	> 10 µM
O=C(/C=C/c1ccc([N+](=O)[O-])s1)c1ccc(C2CCCCC2)cc1	2.38 µM (≈ 0.813 µg/mL)
CC(C)(C)c1ccc(C(=O)/C=C/c2ccco2)cc1	> 10 µM
O=C(/C=C/c1ccc([N+](=O)[O-])s1)c1ccc(-n2ccnc2)cc1	0.23 µM (≈ 0.0748 µg/mL)
O=C(/C=C/c1ccc([N+](=O)[O-])o1)c1ccc(N2CCCC2)cc1	2.18 µM (≈ 0.681 µg/mL)
CSc1ccc(C(=O)/C=C/c2ccco2)cc1	> 10 µM
COc1ccc(/C=C/C(=O)c2ccc(-c3ccccc3)cc2)cc1	> 10 µM
O=C(/C=C/c1ccc([N+](=O)[O-])o1)c1cccc(Br)c1	0.18 µM (≈ 0.058 µg/mL)
O=C(/C=C/c1ccc([N+](=O)[O-])s1)c1ccc(N2CCOCC2)cc1	9.12 µM (≈ 3.14 µg/mL)
